In patent publication US10350199B2, “3-(1h-pyrrolo[2,3-b]pyridin-2-yl)-1h-indazoles and therapeutic uses thereof” (Samumed, LLC, priority 2015, dated 2019) one finds EC50 and inhibition data, which are given here for 13 compounds.

Format in all cases: cell-based
Assay [1] has as its system SW480 colon cancer cells. Nature of the assay: Cell viability assay (CellTiter-Blue), SW480 cells, four days. The note with it: Homo sapiens; for EC50: 96 h, SW480 cell viability, four days, CellTiter-Blue; for inhibition at 10 µM: SW480, read-out: percent inhibition at 10 μM. The protocol:
Representative compounds were screened using the following assay procedure to assess the effect on cell viability as described below.
Approximately 2×10^3 SW480 colon cancer cells were seeded into each well and allowed to incubate in the presence or absence of compound for four days at 37° C./5% CO2. Eight replicates of DMSO-treated cells served as controls and cells treated with compound were performed in duplicate.
After incubation, 20 μL of CellTiter-Blue (Promega) was added to each well allowed to incubate for approximately 3 hours. This reagent was a buffered solution which contains resazurin, metabolically active cells were able to reduce rezarurin (blue) into resorufin (pink) which was highly fluorescent. This measured fluorescence was used as a readout for cell viability.

Assay [2] relates to Wnt activity (Sp5-Luc reporter, SW480 colon carcinoma cells). Nature of the assay: Wnt activity screening assay, Sp5-Luc reporter gene in SW480 cells. The note with it: Homo sapiens; for inhibition at 10 µM: SW480, read-out: percent inhibition at 10 μM; for EC50: Sp5-Luc reporter, SW480 cells, overnight incubation. An excerpt: The screening assay for Wnt activity is described as follows. Reporter cell lines can be generated by stably transducing cancer cell lines (e.g., colon cancer) or primary cells (e.g., IEC-6 intestinal cells) with a lentiviral construct that includes a Wnt-responsive promoter driving expression of the firefly luciferase gene.
SW480 colon carcinoma cells were transduced with a lentiviral vector expressing luciferase with a human Sp5 promoter consisting of a sequence of eight TCF/LEF binding sites. SW480 cells stably expressing the Sp5-Luc reporter gene and a hygromycin resistance gene were selected by treatment with 150 μg/mL of hygromycin for 7 days. These stably transduced SW480 cells were expanded in cell culture and used for all further screening activities. […] For Sp5-Luc reporter gene assays, the cells were plated at 4,000 cells/well in 384-well plates with medium containing 1% fetal bovine serum and incubated overnight at 37° C. and 5% CO2. Following incubation, 20 μl of BrightGlo luminescence reagent (Promega) was added to each well of the 384-well assay plates. The plates were placed on an orbital shaker for 2 min and then luminescence was quantified using the Envision (Perkin Elmer) plate reader. Readings were normalized to DMSO only treated cells, and normalized activities were utilized for EC50 calculations using the dose-response log (inhibitor) vs. response -variable slope (four parameters) nonlinear regression feature available in GraphPad Prism 5.0 (or Dotmatics).

Assay [3] relates to primary human fibroblasts derived from IPF patients (LL29 cells) treated with TGF-β1. The assay is described as follows: Inhibition of the fibrotic process: αSMA staining in TGF-β1 treated LL29 fibroblasts. The settings on record: Fibroblast; for EC50: 96 h, LL29 cells, TGF-β1 20 ng/mL, 4 days, % αSMA positive cells; for inhibition at 10 µM: read-out: percent inhibition at 10 μM. The procedure:
Representative compounds were screened using primary human fibroblasts (derived from IPF patients) treated with TGF-β1 to determine their ability to inhibit the fibrotic process.
LL29 cells are plated at 1,500 cells/well in 80 μL/well F12 medium supplemented with 1% Fetal Bovine Serum. […] Wells treated with TGF-β1 and containing DMSO were used as controls. […] Following incubation for 4 days, SYTOX green nucleic acid stain (Life Technologies [Thermo Fisher Scientific]) was added to the wells at a final concentration of 1 μM and incubated at room temperature for 30 min.

Assay [4] has as its system IL-6 (THP-1 human monocyte cell line). The assay is described as follows: IL-6 inhibition in LPS-stimulated THP-1 cells (HTRF). The note with it: for EC50: IL-6 inhibition, LPS-stimulated THP-1 cells, HTRF; for inhibition at 10 µM: THP-1, read-out: percentage in parentheses beside EC50 >10 (IL-6 inhibition). The protocol: THP-1 cells were cultured in basal media with 1% FBS for 24 hours before the start of the assay. […] THP-1 cells were plated at 5000 cells/well in the 384-well plates and incubated at 37° C. for 2 h. 500 ng/mL of LPS was added after 2 hours and cells were incubated for another 22 hours at 37° C. Plates were spun in a centrifuge for 1 minute at […] and a mixture of anti-IL6 XL665, and anti-IL6 Cryptate diluted in reconstitution buffer (Cisbio Inc.) was added to each well. Following incubation for 3 hrs at room temperature, Homogeneous Time-Resolved Fluorescence (HTRF) was measured using the Envision (Perkin Elmer) at 665 nm and […]. The ratio of fluorescence at 665 nm to 620 nm was used as a readout for IL6 quantification. All samples were processed in duplicate. Readings were normalized to DMSO treated cells and normalized activities were utilized for EC50 calculations using the dose-response log (inhibitor) vs. response -variable slope (four parameters) nonlinear regression feature available in GraphPad Prism 5.0 (or Dotmatics).

For the compound `Fc1cccc(-c2ccnc3[nH]c(-c4n[nH]c5ccc(-c6ccncc6)cc45)cc23)c1` [Compound 18, 3-(4-(3-Fluorophenyl)-1H-pyrrolo[2,3-b]pyridin-2-yl)-5-(pyridin-4-yl)-1H-indazole], the 50% effective concentration (EC50) in assay [1] is more than 10 µM; in assay [2] it was more than 10 µM; in assay [3], more than 10 µM; in assay [4], 0.995 µM. For the same compound, the inhibition at 10 µM was determined as 16.2% in assay [1], 18% in assay [2] and 33.6% in assay [3].
Turning to `O=C(Nc1cncc(-c2ccc3[nH]nc(-c4cc5c(-c6cccc(F)c6)ccnc5[nH]4)c3c2)c1)C1CC1` [Compound 20, N-(5-(3-(4-(3-Fluorophenyl)-1H-pyrrolo[2,3-b]pyridin-2-yl)-1H-indazol-5-yl)pyridin-3-yl)cyclopropanecarboxamide], the EC50 was 1.06 µM in assay [1], 0.035 µM in assay [2], 7.73 µM in assay [3] and more than 10 µM in assay [4]. Besides, the inhibition at 10 µM in assay [4] was 34.5%.
`Fc1cccc(-c2ccnc3[nH]c(-c4n[nH]c5ccc(-c6cncc(CN7CCC(F)(F)C7)c6)cc45)cc23)c1` [Compound 26, 5-(5-((3,3-Difluoropyrrolidin-1-yl)methyl)pyridin-3-yl)-3-(4-(3-fluorophenyl)-1H-pyrrolo[2,3-b]pyridin-2-yl)-1H-indazole]: the EC50 was more than 10 µM in assay [1], more than 10 µM in assay [2], 1.96 µM in assay [3] and 0.285 µM in assay [4]. Moreover, the inhibition at 10 µM in assay [1] amounted to 40.6%; in assay [2] it was 49%.
As to `Fc1cccc(-c2ccnc3[nH]c(-c4n[nH]c5ccc(-c6ccccn6)cc45)cc23)c1` [Compound 28, 3-(4-(3-Fluorophenyl)-1H-pyrrolo[2,3-b]pyridin-2-yl)-5-(pyridin-2-yl)-1H-indazole], the EC50 in assay [1], in assay [2], in assay [3] and in assay [4] was more than 10 µM each time. Further, the inhibition at 10 µM in assay [1] was 12.9%; in assay [2] it was 8.5%; in assay [3], 12%; in assay [4], 21%.
As to `CC(C)CC(=O)Nc1cncc(-c2ccc3[nH]nc(-c4cc5c(-c6ccc(F)cc6)ccnc5[nH]4)c3c2)c1` [Compound 30, N-(5-(3-(4-(4-Fluorophenyl)-1H-pyrrolo[2,3-b]pyridin-2-yl)-1H-indazol-5-yl)pyridin-3-yl)-3-methylbutanamide], the EC50 in assay [1], in assay [2], in assay [3] and in assay [4] was more than 10 µM throughout. Besides, the inhibition at 10 µM was found to be 14.9% in assay [1], 13.6% in assay [2], 20.2% in assay [3] and 25.3% in assay [4].
Turning to `CC(C)(C)C(=O)Nc1cncc(-c2ccc3[nH]nc(-c4cc5c(-c6ccc(F)cc6)ccnc5[nH]4)c3c2)c1` [Compound 36, N-(5-(3-(4-(4-Fluorophenyl)-1H-pyrrolo[2,3-b]pyridin-2-yl)-1H-indazol-5-yl)pyridin-3-yl)pivalamide], the EC50 in assay [1], in assay [2], in assay [3] and in assay [4] was more than 10 µM in each case. In addition, the inhibition at 10 µM in assay [1] worked out at 33.1%; in assay [2] it was 11.7%; in assay [3] it was 0%; in assay [4], 19.3%.
For `O=C(Nc1cncc(-c2ccc3[nH]nc(-c4cc5c(-c6ccc(F)cc6)ccnc5[nH]4)c3c2)c1)c1ccccc1` [Compound 39, N-(5-(3-(4-(4-Fluorophenyl)-1H-pyrrolo[2,3-b]pyridin-2-yl)-1H-indazol-5-yl)pyridin-3-yl)benzamide], the EC50 in assay [1] was more than 10 µM; in assay [2], more than 10 µM; in assay [3], 4.88 µM; in assay [4], more than 10 µM. For the same compound, the results for the inhibition at 10 µM in assay [1], in assay [2] and in assay [4] were 24.2%, 0% and 28.4%, respectively.
As to `CCCC(=O)Nc1cncc(-c2ccc3[nH]nc(-c4cc5c(-c6ccc(F)cc6)ccnc5[nH]4)c3c2)c1` [Compound 45, N-(5-(3-(4-(4-Fluorophenyl)-1H-pyrrolo[2,3-b]pyridin-2-yl)-1H-indazol-5-yl)pyridin-3-yl)butyramide], the EC50 in assay [1] is more than 10 µM; in assay [2] it was more than 10 µM; in assay [3], 5.24 µM; in assay [4] it was more than 10 µM. Moreover, the inhibition at 10 µM in assay [1] was determined as 30.7%; in assay [2], 11%; in assay [4], 25.8%.
Turning to `O=C(Nc1cncc(-c2ccc3[nH]nc(-c4cc5c(-c6ccc(F)cc6)ccnc5[nH]4)c3c2)c1)C1CCC1` [Compound 49, N-(5-(3-(4-(4-Fluorophenyl)-1H-pyrrolo[2,3-b]pyridin-2-yl)-1H-indazol-5-yl)pyridin-3-yl)cyclobutanecarboxamide], the EC50 in assay [1], in assay [2], in assay [3] and in assay [4] was more than 10 µM each time. Further, the inhibition at 10 µM came out at 11.8% in assay [1], 10.6% in assay [2], 3.2% in assay [3] and 29.6% in assay [4].
On to `CC(C)C(=O)Nc1cncc(-c2ccc3[nH]nc(-c4cc5c(-c6ccccc6F)ccnc5[nH]4)c3c2)c1` [Compound 65, N-(5-(3-(4-(2-Fluorophenyl)-1H-pyrrolo[2,3-b]pyridin-2-yl)-1H-indazol-5-yl)pyridin-3-yl)isobutyramide], for which the EC50 in assay [1], in assay [2], in assay [3] and in assay [4] was more than 10 µM in each case. Moreover, the inhibition at 10 µM worked out at 10.8% in assay [1], 30.5% in assay [2], 11.7% in assay [3] and 34.9% in assay [4].
As to `CC(C)Nc1cncc(-c2ccc3[nH]nc(-c4cc5c(-c6ccccc6F)ccnc5[nH]4)c3c2)c1` [Compound 68, 5-(3-(4-(2-Fluorophenyl)-1H-pyrrolo[2,3-b]pyridin-2-yl)-1H-indazol-5-yl)-N-isopropylpyridin-3-amine], the EC50 in assay [1] was more than 10 µM; in assay [2], more than 10 µM; in assay [3], more than 10 µM; in assay [4] it was 0.384 µM. Further, the inhibition at 10 µM was 10.9% in assay [1], 18.7% in assay [2] and 0% in assay [3].
Consider `CC(C)CC(=O)Nc1cncc(-c2ccc3[nH]nc(-c4cc5c(-c6ccsc6)ccnc5[nH]4)c3c2)c1` [Compound 282, 3-Methyl-N-(5-(3-(4-(thiophen-3-yl)-1H-pyrrolo[2,3-b]pyridin-2-yl)-1H-indazol-5-yl)pyridin-3-yl)butanamide], for which the EC50 in assay [1] came out at 6.94 µM; in assay [2], 2.1 µM; in assay [4], 0.971 µM.
As for `COc1cncc(-c2ccc3[nH]nc(-c4cc5c(-c6ccco6)ccnc5[nH]4)c3c2)c1` [Compound 991, 3-(4-(Furan-2-yl)-1H-pyrrolo[2,3-b]pyridin-2-yl)-5-(5-methoxypyridin-3-yl)-1H-indazole], the results for the EC50 in assay [1], in assay [2] and in assay [4] were more than 10 µM, more than 10 µM and 0.012 µM, respectively. Further, the values for the inhibition at 10 µM in assay [1] and in assay [2] were 0% and 7.9%, respectively.
